Experimental data reported in EP0593765A1, “6-SUBSTITUTED LIPID A ANALOG” (priority 1991, dated 1993).

Key:
neutrophils = test: O₂⁻ production stimulating activity in neutrophils; type: cell-based, C3H/HeN mouse; details: compound 10 µg/mℓ, 37°C for 60 minutes, then cytochrome C (80 µM) and FMLP (0.1 µM); SOD-inhibitable cytochrome C reduction
Description: The O₂⁻ production stimulating activity in neutrophils was evaluated in the following experimental system [see J. Exp. Med., Vol. 160, 1656 - 1671, 1984].
In the peritoneal cavity of C3H/HeN mouse (male, 8 - 9 weeks old), physiological saline containing 0.2% (w/v) of casein was administered. Three hours later, peritoneal exudate cells (90% or more of which are neutrophils) induced in the peritoneal cavity were collected. These cells (1.7 × 10⁶ cells/ml/tube) were incubated in the presence of the compound of the invention (10 µg/mℓ) at 37°C for 60 minutes, and cytochrome C (80 µM) and fomyl-methionyl-leucyl-phenylalanine (FMLP) (0.1 µM) were added. After reaction for 10 minutes at 37°C in the presence of or in the absence of superoxide dismutase (SOD), the SOD-inhibitable cytochrome C reduction quantity was calculated from the difference of absorbances at 550 nm and 541.7 nm and the molar absorption coefficient (16.5 × 10³). The O₂⁻ production stimulating activity was expressed in the following stimulation percentage. [formula] The compounds of the invention presented the activities as shown in the below table.

interleukin-1 (IL-1) = test: IL-1 producing activity (peripheral blood monocyte fraction; supernatant measured on A375 Met-Mix cells); type: cell-based, human; details: 50 µg of compound, 1 × 10⁶ cells/well, 48 hours at 37°C; reciprocal of supernatant dilution showing 50% inhibition
Description: The producing activity of interleukin-1 (IL-1) was determined in the following experiment [see Biochem. Biopys. Res. Comm., Vol. 154, 1189 - 1196, 1988].
From 50 mℓ of human peripheral blood, buffy coat was isolated, and peripheral blood monocyte fraction was obtained by using Lymphoprep (Wako Pharmaceutical). After hemolyzing mixed erythrocytes, cells were rinsed twice in Dulbecco's modified Eagle medium (MEM), and suspended in the RPMI 1640 medium containing 5% fetal cow serum (FCS) and 2.5 × 10⁻⁵ M 2-mercaptoethanol. The cells (1 × 10⁶ cells/well) were incubated in a 24-well plate containing 50 µg (50 µℓ) of the compound of the invention for 48 hours at 37°C in the presence of 5% carbon dioxide, and the supernatant of culture was samples as IL-1 induction supernatant. The IL-1 activity in the IL-1 induction supernatant was evaluated by measuring the growth inhibitory activity of IL-1 susceptible human melanoma cell A375 Met-Mix. The cells of A375 Met-Mix (2 × 10³ cells/0.1 mℓ/well) were suspended in RPMI 1640 medium containing 10% FCS, and the IL-1 induction supernatant (0.1 mℓ/well) diluted in steps was added and incubated in a 96-well plate for 96 hours at 37°C in the presence of 5% carbon dioxide. After incubation, the viable cells were fixed with methanol, and the cells were stained with 0.2% crystal violet, and the cells were dissolved with 1% SDS, and the absorbance at 550 nm was measured. […]

[1] = Lethal toxicity by galactosamine loading; set-up: species or system C57BL mouse; details: mouse, in vivo, ip; 10 mg D-galactosamine hydrochloride intraperitoneally, compound in the caudal vein immediately after; observed to the seventh day; read-out: LD₅₀ (Galactosamine load)
Description: The lethal toxicity by galactosamine loading was evaluated in the following experiment [see J. Biochem., Vol. 98, 395 - 406, 1985].
To C57BL mouse (female, 7 weeks old), 10 mg of D-galactosamine hydrochloride was intraperitoneally administered, and the compound of the invention was administered in the caudal vein immediately after that.

TNF = TNF producing activity (TNF in serum measured by damage of L929 cells); type: in vivo, ICR mouse; details: Corynebacterium parvum primed mouse, 10 µg/mouse intravenously nine days later, blood sampled 90 minutes later; reciprocal of serum dilution showing 50% cytotoxicity
Description: The producing activity of TNF was evaluated in the following experiment.
The first stimulating agent, 5% suspension (0.2 mℓ physiological saline) of Corynebacterium parvum was intravenously administered to ICR mouse (female, 6 - 7 weeks old). Nine days later, as the second stimulating agent, 10 µg/mouse of the compound of the invention was intravenously administered, and 90 minutes later, 0.5 to 1 mℓ of blood was sampled from the retro-orbital plexus. After being allowed to stand at room temperature for 5 to 6 hours, the blood was centrifuged at 7200 × g for 5 minutes to separate the serum. The serum was incubated at 56°C for 30 minutes for inactivation before use in the following experiment.
The TNF activity in serum was determined by measuring the damage of L929 cells were adjusted to a concentration of 6 × 10⁴ cells/well (0.1 mℓ) on the culture medium of RPMI 1640 containing 10% of fetal bovine serum (FBS) and 2 µg/mℓ of actinomycin D, and were seeded on a 96-well plates. The serum was diluted in steps in the RPMI 1640 medium with 10% FBS, and added to the cell by 0.1 mℓ for each. After incubation for 48 hours at 37°C, the viable cells were fixed with methanol. After staining the cells with 0.2% crystal violet, the cells were dissolved in 1% sodium dodecyl sulfate (SDS), and the absorbance at 550 nm was measured. […]

spleen cells = test: Mitogen activity (³H-thymidine uptake into spleen cells); type: cell-based, C3H/HeN mouse; details: 48 hours incubation
Description: The mitogen activity was evaluated in the following experiment [see Eur. J. Immunol., Vol. 14, 109 - 114, 1984].
The spleen of C3H/HeN mouse (male, 6 - 10 weeks old) was aseptically removed, rubbed and loosened in MEM, and passed through stainless steel mesh, and spleen cells were sampled. After hemolyzing the erythrocytes mixed in the spleen cells, the cells were suspended in RPMI 1640 medium containing 5% FBS and presented for the experiment.
The mitogen activity of the compound of the invention was evaluated by measuring the quantity of ³H-thymidine taken into the spleen cells treated with the compound of the invention. That is, the spleen cells adjusted to 5 × 10⁶ cells/well (100 µℓ) were seeded in a 96-well plate, and the compound of the invention (100 µℓ) at specified concentration was added to the spleen cells. After incubation for 48 hours at 37°C in the presence of 5% carbon dioxide, 1 µCi/well (50 µℓ) of ³H-thymidine was added to the incubated cells, which were incubated for further 4 hours. The cells were washed in phosphate buffer saline (PBS), and the titer of ³H-thymidine (radioactivity) taken in the cells was determined by liquid scintillation counter. […]

[2] = compound concentration 10 µg/mℓ

## CCCCCCCCCCCCCCC(CCCCCCCCCCCC)C(=O)O[C@H]1[C@H](OP(=O)(O)O)[C@@H](COC(=O)CCC(=O)OC)OC[C@@H]1NC(=O)C[C@H](O)CCCCCCCCCCC (stereo partly shown) [Example 1]
neutrophils
  Stimulation percentage: 363
interleukin-1 (IL-1)
  IL-1 titer: 24 U/mℓ
[1]
  LD50 at 168 h: 0.0299 mg/kg
TNF
  TNF titer in serum: 727800 U/mℓ
Spleen cells; compound concentration 1 µg/mℓ
  Simulation index: 14.8
Spleen cells; [2]
  Simulation index: 26.5

## CCCCCCCCCCCCCCC(CCCCCCCCCCCC)C(=O)O[C@H]1[C@H](OP(=O)(O)O)[C@@H](CO)OC[C@@H]1NC(=O)C[C@H](O)CCCCCCCCCCC (stereo partly shown) [Control compound, reference compound]
neutrophils
  Stimulation percentage: 80
interleukin-1 (IL-1)
  IL-1 titer: 15 U/mℓ
[1]
  LD50 at 168 h: 0.0028 mg/kg
TNF
  TNF titer in serum: 538900 U/mℓ
Spleen cells; compound concentration 1 µg/mℓ
  Simulation index: 2.7
Spleen cells; [2]
  Simulation index: 18.3

## CCCCCCCCCCCCCCC(CCCCCCCCCCCC)C(=O)O[C@H]1[C@H](OP(=O)(O)O)[C@@H](COC(=O)C(C)(C)C)OC[C@@H]1NC(=O)C[C@H](O)CCCCCCCCCCC (mixture of isomers) [Example 4, 1,5-Anhydro-2-deoxy-3-O-{(2RS)-2-dodecylhexadecanoyl}-2-{(3R)-3-hydroxytetradecanamido}-4-O-phosphono-6-O-pivaloyl-D-glucitol]
neutrophils
  Stimulation percentage: 293
interleukin-1 (IL-1)
  IL-1 titer: 16 U/mℓ
Spleen cells; compound concentration 1 µg/mℓ
  Simulation index: 5.1
Spleen cells; [2]
  Simulation index: 19.6
